# Reference: PubChem BioAssay (NCI)
#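 Method: 48-hour compound exposure of cells in 96-well plates, five concentrations, linear interpolation of endpoints. The concentration for 50% growth inhibition is given as GI50. The concentration for full growth arrest is given as TGI.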
# Experiments:
# Assay in all cases: DTP human tumour cell line panel, 48 h
# [1] = system: 786-0 renal
# [2] = system: A498 renal
# [3] = system: A549 NSCLC
# [4] = system: ACHN renal
# [5] = system: BT-549 breast
# [6] = system: CAKI-1 renal
# [7] = system: CCRF-CEM leukemia
# [8] = system: COLO 205 colon
# [9] = system: DU-145 prostate
# [10] = system: EKVX NSCLC
# [11] = system: HCC-2998 colon
# [12] = system: HCT-116 colon
# [13] = system: HCT-15 colon
# [14] = system: HL-60(TB) leukemia
# [15] = system: HOP-62 NSCLC
# [16] = system: HOP-92 NSCLC
# [17] = system: HS 578T breast
# [18] = system: HT29 colon
# [19] = system: IGROV1 ovarian
# [20] = system: K-562 leukemia
# [21] = system: KM12 colon
# [22] = system: LOX IMVI melanoma
# [23] = system: M14 melanoma
# [24] = system: MALME-3M melanoma
# [25] = system: MCF7 breast
# [26] = system: MDA-MB-231 breast
# [27] = system: MDA-MB-435
# [28] = system: MOLT-4 leukemia
# [29] = system: NCI-H226 lung
# [30] = system: NCI-H23 lung
# [31] = system: NCI-H460 lung
# [32] = system: NCI-H522 lung
# [33] = system: NCI/ADR-RES ovarian
# [34] = system: OVCAR-3 ovarian
# [35] = system: OVCAR-4 ovarian
# [36] = system: OVCAR-5 ovarian
# [37] = system: OVCAR-8 ovarian
# [38] = system: PC-3 prostate
# [39] = system: RPMI-8226 leukemia
# [40] = system: RXF 393 renal
# [41] = system: SF-268 CNS
# [42] = system: SF-295 CNS
# [43] = system: SF-539 CNS
# [44] = system: SK-MEL-2 melanoma
# [45] = system: SK-MEL-28 melanoma
# [46] = system: SK-MEL-5 melanoma
# [47] = system: SK-OV-3 ovarian
# [48] = system: SN12C renal
# [49] = system: SNB-19 CNS
# [50] = system: SNB-75 CNS
# [51] = system: SR leukemia
# [52] = system: SW-620 colon
# [53] = system: T-47D breast
# [54] = system: U251 CNS
# [55] = system: UACC-257 melanoma
# [56] = system: UACC-62 melanoma
# [57] = system: UO-31 renal
structure (smiles),measurement,setting,value
CC1(C)CCC(S(=O)(=O)c2ccc3c(c2)/C(=N\O)c2cc(S(=O)(=O)N4CCN(c5ccc(F)cc5O)CC4)ccc2-3)CC1,GI50,[1],186 nM
same,TGI,[1],415 nM
same,GI50,[2],840 nM
same,TGI,[2],2630 nM
same,GI50,[3],68 nM
same,TGI,[3],218 nM
same,GI50,[4],282 nM
same,TGI,[4],1340 nM
same,GI50,[5],133 nM
same,TGI,[5],286 nM
same,GI50,[6],157 nM
same,TGI,[6],351 nM
same,GI50,[7],93 nM
same,TGI,[7],370 nM
same,GI50,[8],54.8 nM
same,TGI,[8],183 nM
same,GI50,[9],51.7 nM
same,TGI,[9],284 nM
same,GI50,[10],152 nM
same,TGI,[10],515 nM
same,GI50,[11],104 nM
same,TGI,[11],262 nM
same,GI50,[12],33.2 nM
same,TGI,[12],119 nM
same,GI50,[13],153 nM
same,TGI,[13],445 nM
same,GI50,[14],98.6 nM
same,TGI,[14],288 nM
same,GI50,[15],101 nM
same,TGI,[15],237 nM
same,GI50,[16],219 nM
same,TGI,[16],504 nM
same,GI50,[17],163 nM
same,TGI,[17],448 nM
same,GI50,[18],44 nM
same,TGI,[18],182 nM
same,GI50,[19],149 nM
same,TGI,[19],346 nM
same,GI50,[20],50.8 nM
same,TGI,[20],188 nM
same,GI50,[21],47.9 nM
same,TGI,[21],220 nM
same,GI50,[22],21.3 nM
same,TGI,[22],50.4 nM
same,GI50,[23],35.2 nM
same,TGI,[23],144 nM
same,GI50,[24],141 nM
same,TGI,[24],295 nM
same,GI50,[25],159 nM
same,TGI,[25],453 nM
same,GI50,[26],72.1 nM
same,TGI,[26],289 nM
same,GI50,[27],107 nM
same,TGI,[27],251 nM
same,GI50,[28],76.2 nM
same,TGI,[28],242 nM
same,GI50,[29],206 nM
same,TGI,[29],512 nM
same,GI50,[30],230 nM
same,TGI,[30],583 nM
same,GI50,[31],66.1 nM
same,TGI,[31],223 nM
same,GI50,[32],147 nM
same,TGI,[32],290 nM
same,GI50,[33],443 nM
same,TGI,[33],2630 nM
same,GI50,[34],117 nM
same,TGI,[34],285 nM
same,GI50,[35],63.5 nM
same,TGI,[35],263 nM
same,GI50,[36],164 nM
same,TGI,[36],367 nM
same,GI50,[37],86.9 nM
same,TGI,[37],402 nM
same,GI50,[38],108 nM
same,TGI,[38],314 nM
same,GI50,[39],126 nM
same,TGI,[39],1150 nM
same,GI50,[40],157 nM
same,TGI,[40],314 nM
same,GI50,[41],109 nM
same,TGI,[41],286 nM
same,GI50,[42],176 nM
same,TGI,[42],394 nM
same,GI50,[43],127 nM
same,TGI,[43],270 nM
same,GI50,[44],73 nM
same,TGI,[44],204 nM
same,GI50,[45],129 nM
same,TGI,[45],293 nM
same,GI50,[46],179 nM
same,TGI,[46],326 nM
same,GI50,[47],109 nM
same,TGI,[47],240 nM
same,GI50,[48],683 nM
same,GI50,[49],211 nM
same,TGI,[49],486 nM
same,GI50,[50],162 nM
same,TGI,[50],324 nM
same,GI50,[51],29.3 nM
same,TGI,[51],80.2 nM
same,GI50,[52],46.7 nM
same,TGI,[52],168 nM
same,GI50,[53],104 nM
same,TGI,[53],234 nM
same,GI50,[54],105 nM
same,TGI,[54],223 nM
same,GI50,[55],165 nM
same,TGI,[55],491 nM
same,GI50,[56],71.7 nM
same,TGI,[56],221 nM
same,GI50,[57],188 nM
same,TGI,[57],460 nM
